Assay: Inhibition of chemR23 expressed in human CAL1 cells assessed as reduction in chemerin-induced chemotaxis incubated for 4 hrs by cell counting based CellTiter-Glo assay

`CCCCN(c1nc2c(C(=O)O)cccc2o1)[C@H](C)c1ccc(-c2cc(Cl)ccc2-c2nc(=O)o[nH]2)cc1` showed an IC50 of 235 nM.
`Cc1ccc(-c2nc(=O)o[nH]2)c(-c2ccc([C@@H](C)N(CC3CC3)c3nc4c(C(=O)O)cccc4o3)cc2)c1` gave an IC50 of 63 nM.
